Experimental data reported in US20040266732A1, “Therapeutic agents, methods, and treatments” (priority 2002, published 2004).

Assays:
H226 cell cancer tumors = experiment: Induced-tumor NOD/SCID mouse model (Example 7); assay type: in vivo, NOD/SCID mice; conditions: 30 mg/kg intraperitoneal every other day for two weeks
Method: A standard induced-tumor NOD/SCID mouse model was used to perform this investigation, with the mouse model being based on protocols for human xenograft systems developed at the National Cancer Institute. H226 cell cancer tumors were induced in NOD/SCID mice; tumors at sizes approximately 100 mm^3 were treated with 30 mg/kg MT103 or a control containing only vehicle (2.5% DMSO in distilled water) administered in intraperitoneal injections every other day for two weeks.

[1] = system: MCF7 Cell line (Breast Cancer); experiment: NCI three cell-line test; assay type: cell-based, human; conditions: 1(10^−4) Molar in growth medium, percent of growth of untreated control cells
Method: (§1) The testing in this Example was performed by NCI, as per their 3-cell line panel test. The results are reported as the percent of the growth of the treated cells compared to the untreated control cells. The criterion for being an effective compound and for being subjected to further testing is that the tested compound reduce the growth of any one of the three cell lines to approximately 32% or less.
(§2) The methods for conducting the test are described below in Example 3, except that the cells were exposed to a single concentration of MT103, at 1×10^−4 Molar, and colorimetric determinations were made with alamar blue (Biotechniques 21(5):780-782 (1996)).
(§3) Methodology: The NCI conducted a test of the MT103 drug against 60 human cell lines, with a minimum of five concentrations of MT103 at 10-fold dilutions. A 48 hour continuous drug exposure was used, and a sulforhodamine B (SRB) protein assay was used to estimate cell viability and growth. The human tumor cell lines of the cancer screening panel were grown in RPMI 1640 medium containing 5% fetal bovine serum and 2 mM L-glutamine. Cells were inoculated into 96 well microtiter plates in 100 μL at plating densities ranging from 5,000 to 40,000 cells/well depending on the doubling time of individual cell lines. After cell inoculation, the microtiter plates are incubated at 37° C., 5% CO2, 95% air, and 100% relative humidity for 24 h prior to addition of experimental drugs. […]
(§4) Following drug addition, the plates were incubated for an additional 48 h at 37° C., 5% CO2, 95% air, and 100% relative humidity. […] Bound stain was subsequently solubilized with 10 mM trizma base, and the absorbance was read on an automated plate reader at a wavelength of 515 nm. […] Using the seven absorbance measurements (time zero, (Tz), control growth, (C), and test growth in the presence of drug at the five concentration levels (Ti)), the percentage growth was calculated at each of the drug concentrations levels. Percentage growth inhibition was calculated as: […]

[2] = system: NCI-H460 Cell Line (Non-Small cell Lung); experiment: NCI three cell-line test; assay type: cell-based, human; conditions: 1(10^−4) Molar in growth medium, percent of growth of untreated control cells
Method: as §1, §2, §3, §4

[3] = system: SF-268 Cell Line (Central Nervous System); experiment: NCI three cell-line test; assay type: cell-based, human; conditions: 1(10^−4) Molar in growth medium, percent of growth of untreated control cells
Method: as §1, §2, §3, §4

MCF7, NCI-H460, SF-268 = experiment: NCI three cell-line test, all three cell lines; assay type: cell-based, human; conditions: one concentration tested (1×10^−4 Molar)
Method: as §1, §2
Methodology: The NCI conducted a test of the MT103 drug against 60 human cell lines, with a minimum of five concentrations of MT103 at 10-fold dilutions. […]
as §4

A549 (an adenocarcinoma) = experiment: Induced-tumor NOD/SCID mouse model, A549; assay type: in vivo, NOD/SCID mice
Method: In another experiment, NOD/SCID mice, (NOD.CB17-Prkdcscid/J) were treated over a time course with 60 mg/kg of MT103 or a sham treatment, and a different lung cancer cell line was used, A549 (an adenocarcinoma), instead of NCI-H226 (a squamous carcinoma).

## CC1(C)C2CC[C@@]1(CS(=O)(=O)N(C1CCCCC1)C1CCCCC1)C(O)C2 (stereo partly shown) [MT103]
H226 cell cancer tumors
  toxicity: without any evidence of toxicity
H226 cell cancer tumors; FIG. 3
  tumor volume: tumor volume was significantly decreased
H226 cell cancer tumors; FIG. 4
  mice body weight: did not have deleterious effect on mice body weight
H226 cell cancer tumors; p=0.038
  H226 tumor progression: slowed down H226 tumor progression significantly
[1]
  Growth, Percentage: 0%
[2]
  Growth, Percentage: 16%
[3]
  Growth, Percentage: 14%
MCF7, NCI-H460, SF-268
  growth of all three cell lines: ≤ 16%
A549 (an adenocarcinoma); 60 mg/kg versus sham
  onset of tumor growth: delayed onset of tumor growth
A549 (an adenocarcinoma); 60 mg/kg, t=30 days
  tumor size versus control: significantly smaller than the control groups
